Experimental data: ChEMBL document CHEMBL2086295, “The design, synthesis, in silico ADME profiling, antiplasmodial and antimycobacterial evaluation of new arylamino quinoline derivatives” (Eur J Med Chem, 2012)
Converted amounts (≈) assume the structure as drawn.

How the values were obtained:
[1] = Kinetic solubility of the compound at pH 7.4; type: physicochemical; conditions: buffer, read-out: Kinetic_solubility
[2] = test system: Mycobacterium tuberculosis; assay: Antimycobacterial activity against Mycobacterium tuberculosis H37Rv ATCC 27294 after 10 days by low oxygen recovery assay; type: functional; conditions: for MIC90: Mycobacterium tuberculosis, H37Rv ATCC 27294, 240 h
Plasmodium falciparum [3] = assay: Antiplasmodial against chloroquine-rsistant Plasmodium falciparum W2 after 2 days by flow cytometry; type: functional, organism-based; conditions: W2, 48 h
Plasmodium falciparum [4] = assay: Antiplasmodial against chloroquine-rsistant Plasmodium falciparum K1 assessed as inhibition of [3H]hypoxanthine incorporation after 24 hrs by scintillation counting; type: functional, organism-based
[5] = test system: Mycobacterium tuberculosis; assay: Antimycobacterial activity against Mycobacterium tuberculosis H37Rv ATCC 27294 after 7 days by microplate alamar blue assay; type: functional; conditions: for MIC90: Mycobacterium tuberculosis, H37Rv ATCC 27294, 168 h
Plasmodium falciparum [6] = assay: Antiplasmodial against chloroquine-sensitive Plasmodium falciparum 3D7 assessed as inhibition of [3H]hypoxanthine incorporation after 24 hrs by scintillation counting; type: functional, organism-based

Row | SMILES | solubility kinetic [1] [µM] | inhibition (INH) [2] [%] | MIC90 [2] [µM] | IC50 (Plasmodium falciparum [3]) [µM] | IC50 (Plasmodium falciparum [4]) [µM] | inhibition (INH) [5] [%] | MIC90 [5] [µM] | IC50 (Plasmodium falciparum [6]) [µM]
1 | COc1ccc2nccc(C(c3nnnn3C(C)(C)C)N(C)C)c2c1 (stereo not given) | 189 (≈ 64.5 µg/mL) | 42 | > 128 | > 10 | 1.31 | 16 | > 128 | 1.31
2 | CCN(CC)C(c1ccnc2ccc(OC)cc12)c1nnnn1C(C)(C)C (stereo not given) | 137 (≈ 50.4 µg/mL) | 94 | 123 (≈ 45.4 µg/mL) | > 10 | 2.39 | 83 | > 128 | 2.39
3 | COc1ccc2nccc(C(c3nnnn3C(C)(C)C)N3CCCC3)c2c1 (stereo not given) | – | 30 | > 128 | > 10 | 13.8 | 24 | > 128 | 13.8
4 | COc1ccc2nccc(C(c3nnnn3C(C)(C)C)N3CCCCC3)c2c1 (stereo not given) | 114 (≈ 43.5 µg/mL) | 64 | > 128 | > 10 | 2.63 | 98 | 92.5 (≈ 35.2 µg/mL) | 0.647
5 | COc1ccc2nccc(C(c3nnnn3C(C)(C)C)N3CCN(C)CC3)c2c1 (stereo not given) | – | 0 | > 128 | 8.39 | 7.95 | 0 | > 128 | 16.8
6 | COc1ccc2nccc(C(c3nnnn3C(C)(C)C)N3CCOCC3)c2c1 (stereo not given) | 179 (≈ 68.3 µg/mL) | 32 | > 128 | > 10 | 1.23 | 0 | > 128 | 0.98
7 | COc1ccc2nccc(C(c3nnn[nH]3)N3CCOCC3)c2c1 (stereo not given) | 202 (≈ 65.9 µg/mL) | 1 | > 128 | > 10 | 6.74 | 0 | > 128 | 8.62
8 | CN(C)C(c1cc(C(F)(F)F)nc2c(C(F)(F)F)cccc12)c1nnnn1C(C)(C)C (stereo not given) | – | – | – | – | 4.53 | – | > 160 | –
9 | CCN(CC)C(c1cc(C(F)(F)F)nc2c(C(F)(F)F)cccc12)c1nnnn1C(C)(C)C (stereo not given) | – | – | – | – | 2.32 | – | > 160 | –
10 | O[C@@H](c1cc(C(F)(F)F)nc2c(C(F)(F)F)cccc12)[C@H]1CCCCN1 (relative stereo) [(S,R)-MEFLOQUINE] | – | – | – | – | – | – | 10 (≈ 3.78 µg/mL) | –
11 | NNC(=O)c1ccncc1 [ISONIAZID] | – | 64 | > 128 | – | – | 92 | 0.23 (≈ 0.0315 µg/mL) | –
12 | NC[C@H]1O[C@H](O[C@H]2[C@H](O)[C@@H](O[C@H]3O[C@H](CO)[C@@H](O)[C@H](N)[C@H]3O)[C@H](N)C[C@@H]2N)[C@H](O)[C@@H](O)[C@@H]1O [KANAMYCIN] | – | – | – | – | – | – | 3.12 (≈ 1.51 µg/mL) | –
13 | O=[N+]([O-])c1cn2c(n1)OC[C@@H](OCc1ccc(OC(F)(F)F)cc1)C2 [PRETOMANID] | – | 100 | 3.78 (≈ 1.36 µg/mL) | – | – | 99 | 0.12 (≈ 0.0431 µg/mL) | –
14 | C=C[C@H]1CN2CC[C@H]1C[C@H]2[C@H](O)c1ccnc2ccc(OC)cc12 [QUININE] | – | 98 | 122 (≈ 39.6 µg/mL) | 0.0187 | 0.0204 | 95 | 120 (≈ 38.8 µg/mL) | 0.0007
15 | CO[C@H]1/C=C/O[C@@]2(C)Oc3c(C)c(O)c4c(O)c(c(/C=N/N5CCN(C)CC5)c(O)c4c3C2=O)NC(=O)/C(C)=C\C=C\[C@H](C)[C@H](O)[C@@H](C)[C@@H](O)[C@@H](C)[C@H](OC(C)=O)[C@@H]1C [RIFAMPIN] | – | 98 | 1.93 (≈ 1.59 µg/mL) | – | – | 100 | 0.05 (≈ 0.0411 µg/mL) | –
16 | CN[C@@H]1[C@H](O[C@H]2[C@H](O[C@H]3[C@H](O)[C@@H](O)[C@H](N=C(N)N)[C@@H](O)[C@@H]3N=C(N)N)O[C@@H](C)[C@]2(O)C=O)O[C@@H](CO)[C@H](O)[C@H]1O [STREPTOMYCIN] | – | – | – | – | – | – | 0.4 (≈ 0.233 µg/mL) | –
